Experimental data taken from US7807721B2, “Compositions for inhibiting the scent tracking ability of mosquitoes in environmentally defined three dimensional spaces” (Biosensory Inc., priority 1999, dated 2010).

Legend:
[1] = test system: adult female Aedes aegypti mosquitoes; assay: Dual-port olfactometer tests of Example 2: test compound + CS vs CS, and Deet vs inhibitor; format: in vivo
Source text: (§1) A triple cage, dual-port olfactometer, illustrated and described in detail by Posey et al. J. Med. Entomol. 35(3), 330-334 (1998), was used to study the responses of 6 to 8 day old, laboratory-reared adult female Aedes aegypti mosquitoes. This system allows mosquitoes to choose between two different stimuli. The olfactometer is constructed of clear acrylic, comprises three test chambers in a tiered configuration, has paired removable sleeves, and mosquito traps on each chamber, and is equipped with a filtered external air supply system that allows precise temperature (+/−0.5° C.) and relative humidity (+/−2%) control. Only one chamber at a time was used for the tests. Outside air was conditioned prior to entry through the choice ports, the mosquito trap, and the olfactometer by passing through a series of charcoal filters and then heated and humidified, if necessary. One hour before initiation of tests, about 75 female Ae. aegypti mosquitoes were aspirated into the olfactometer chamber and allowed to acclimatize for that one hour before testing. Test compounds were placed into test ports upwind of the traps and olfactometer chamber. A completely randomized design was used for cage position. Competitive tests were conducted. In these competitive tests, the inhibiting compound was placed into one of the ports (treatment port); the second port (check port) had the same apparatus but no chemical inhibiting compound. In these tests, inhibiting compounds were presented in glass Pyrex petri dishes (60×15 mm) that had been cleaned and sterilized in a vacuum oven and then handled only with gloves to minimize any chance of contamination and placed into one port (Treatment Port) along with another petri dish containing 500 μL of Clara Sludge (CS), a synthetic human attractant. The other port (Check Port) contained an untreated petri with no inhibiting compound and a second petri dish containing 500 μL CS. Various concentrations (25, 100, 250, 500 and 1000 μL) of the compounds were used in these tests. Each test was conducted for a period of 3 minutes; the number of mosquitoes trapped in the baited ports, and those remaining in the cage, were counted. The data are then presented as a percentage of total mosquitoes in the cage that were attracted to each port and the percentage of mosquitoes remaining in the cage (i.e., not attracted to either port). Tests identical to that described in Example 1 were conducted with test compounds when employed together with the synthetic human attractant (CS) in a port. The test combinations were: • (1) CS vs. CS (comparison) • (2) dehydrolinalool+CS vs. CS • (3) linalool+CS vs. CS Also for comparison purposes, a known topical mosquito repellent, Deet, namely N,N-diethyl-3-methylbenzamide, was employed to compare to linalool and to dehydrolinalool. Each test compound was tested at 100, 250 and 500 μL. The results are again presented as percent mosquitoes attracted to Ports 1 or 2 or not attracted to either port.

[2] = test system: adult female Aedes aegypti mosquitoes; assay: Competitive tests in triple cage, dual-port olfactometer: inhibitor + Clara Sludge (CS) human attractant port vs CS-only port; format: in vivo; conditions: for % Mosquitoes Entering Treatment Port (Inhibitor Port): 3 min test; for % Mosquitoes Entering Control Port (Human Scent Port): control port 500 μL CS only; for % Mosquitoes Entering Control Port (Human Scent Port) / % Mosquitoes Remaining in Cage: 3 min
Source text: as §1, with “port).” for “port). Tests identical to that described in Example 1 were conducted with test compounds when employed together with the synthetic human attractant (CS) in a port. The test combinations were: • (1) CS vs. CS (comparison) • (2) dehydrolinalool+CS vs. CS • (3) linalool+CS vs. CS Also for comparison purposes, a known topical mosquito repellent, Deet, namely N,N-diethyl-3-methylbenzamide, was employed to compare to linalool and to dehydrolinalool. Each test compound was tested at 100, 250 and 500 μL. The results are again presented as percent mosquitoes attracted to Ports 1 or 2 or not attracted to either port.”

[3] = 100 micro liter, Port 1 Deet vs Port 2 dehydrolinalool
[4] = 100 micro liter, Port 1 Deet vs Port 2 linalool
[5] = 250 micro liter, Port 1 Deet vs Port 2 dehydrolinalool
[6] = 250 micro liter, Port 1 Deet vs Port 2 linalool
[7] = 500 micro liter, Port 1 Deet vs Port 2 dehydrolinalool
[8] = 500 micro liter, Port 1 Deet vs Port 2 linalool
[9] = 100 micro liter, Port 1 test compound vs Port 2 human scent
[10] = 250 micro liter, Port 1 test compound vs Port 2 human scent
[11] = 500 micro liter, Port 1 test compound vs Port 2 human scent

CCN(CC)C(=O)c1cccc(C)c1 [Deet, N,N-diethyl-3-methylbenzamide, reference compound]
% Mosquitoes Entering Port 1 (Deet) [1, 3]: 60.1%
% Mosquitoes Remaining in Cage [1, 3]: 19.8%
% Mosquitoes Entering Port 1 (Deet) [1, 4]: 56.3%
% Mosquitoes Remaining in Cage [1, 4]: 26.2%
% Mosquitoes Entering Port 1 (Deet) [1, 5]: 48.8%
% Mosquitoes Remaining in Cage [1, 5]: 29.2%
% Mosquitoes Entering Port 1 (Deet) [1, 6]: 48.1%
% Mosquitoes Remaining in Cage [1, 6]: 26.2%
% Mosquitoes Entering Port 1 (Deet) [1, 7]: 42.1%
% Mosquitoes Remaining in Cage [1, 7]: 27.6%
% Mosquitoes Entering Port 1 (Deet) [1, 8]: 49.5%
% Mosquitoes Remaining in Cage [1, 8]: 27.3%

C#CC(C)(O)CCC=C(C)C (stereo not shown) [Dehydrolinalool, dehydrolinalool]
% Mosquitoes Entering Treatment Port (Inhibitor Port) ([2]; 25 micro liter test compound + 500 μL CS in treatment port): 30.23%
% Mosquitoes Entering Control Port (Human Scent Port) ([2]; 25 micro liter test compound in treatment port): 50.77%
% Mosquitoes Remaining in Cage ([2]; 25 micro liter test compound): 19%
% Mosquitoes Entering Treatment Port (Inhibitor Port) ([2]; 100 micro liter test compound + 500 μL CS in treatment port): 31.13%
% Mosquitoes Entering Control Port (Human Scent Port) ([2]; 100 micro liter test compound in treatment port): 53.87%
% Mosquitoes Remaining in Cage ([2]; 100 micro liter test compound): 15%
% Mosquitoes Entering Treatment Port (Inhibitor Port) ([2]; 250 micro liter test compound + 500 μL CS in treatment port): 22.6%
% Mosquitoes Entering Control Port (Human Scent Port) ([2]; 250 micro liter test compound in treatment port): 44.6%
% Mosquitoes Remaining in Cage ([2]; 250 micro liter test compound): 32.8%
% Mosquitoes Entering Treatment Port (Inhibitor Port) ([2]; 500 micro liter test compound + 500 μL CS in treatment port): 24.8%
% Mosquitoes Entering Control Port (Human Scent Port) ([2]; 500 micro liter test compound in treatment port): 56.47%
% Mosquitoes Remaining in Cage ([2]; 500 micro liter test compound): 24.18%
% Mosquitoes Entering Treatment Port (Inhibitor Port) ([2]; 1000 micro liter test compound + 500 μL CS in treatment port): 26.11%
% Mosquitoes Entering Control Port (Human Scent Port) ([2]; 1000 micro liter test compound in treatment port): 42.76%
% Mosquitoes Remaining in Cage ([2]; 1000 micro liter test compound): 27.12%
inhibition of the ability of mosquitoes to locate the human scent (CS) ([2]; all tested concentration levels (25-1000 μL)): greatly inhibit
% Mosquitoes Entering Port 2 (dehydrolinalool) [1, 3]: 20.1%
% Mosquitoes Remaining in Cage [1, 3]: 19.8%
% Mosquitoes Entering Port 1 (test compound + CS) [1, 9]: 18.1%
% Mosquitoes Entering Port 2 (human scent) [1, 9]: 63%
% Mosquitoes Remaining in Cage [1, 9]: 18.9%
% Mosquitoes Entering Port 2 (dehydrolinalool) [1, 5]: 22.5%
% Mosquitoes Remaining in Cage [1, 5]: 29.2%
% Mosquitoes Entering Port 1 (test compound + CS) [1, 10]: 20.1%
% Mosquitoes Entering Port 2 (human scent) [1, 10]: 59.2%
% Mosquitoes Remaining in Cage [1, 10]: 20.6%
% Mosquitoes Entering Port 2 (dehydrolinalool) [1, 7]: 30.3%
% Mosquitoes Remaining in Cage [1, 7]: 27.6%
% Mosquitoes Entering Port 1 (test compound + CS) [1, 11]: 20.6%
% Mosquitoes Entering Port 2 (human scent) [1, 11]: 55.5%
% Mosquitoes Remaining in Cage [1, 11]: 23.9%
